As usually defined, the IC50 is the point on the concentration scale where inhibition reaches its midpoint.

This assay concerns the target T1, Angiotensin II Receptor (Bos taurus, UniProt P25104).
T1 construct: added in 20 ul to wells before the introduction of tissue membranes; from tissue; host or cells: microsomal membranes of an unnamed tissue
T1 sequence (P25104 1-359): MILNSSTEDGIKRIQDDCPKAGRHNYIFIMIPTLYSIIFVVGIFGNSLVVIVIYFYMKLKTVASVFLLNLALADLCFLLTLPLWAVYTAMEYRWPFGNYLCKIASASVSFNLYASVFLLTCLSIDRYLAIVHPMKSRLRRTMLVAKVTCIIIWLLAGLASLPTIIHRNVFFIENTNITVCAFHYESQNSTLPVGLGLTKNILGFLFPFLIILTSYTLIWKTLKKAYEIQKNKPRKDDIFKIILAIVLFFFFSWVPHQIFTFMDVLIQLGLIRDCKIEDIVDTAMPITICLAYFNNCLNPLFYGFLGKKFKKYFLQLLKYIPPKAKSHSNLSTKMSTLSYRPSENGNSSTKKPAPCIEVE
The assay can be described thus: Receptor Binding Assay: displacement of [^125 I](Sar^1,Ile^8)AngII from microsomal membranes. Particulars: pH 7.4, 60 min, room temperature. The procedure: Binding of [^125 I](Sar^1, Ile^8)AngII
The binding of [^125 I](Sar^1,Ile^8)AngII to microsomal membranes is initiated by the addition of reconstituted membranes (1:10 vols.) in freshly made 50.0 mMTris.HCl buffer, pH 7.4 containing 0.25% heat inactivated bovine serum albumin (BSA): 80 ul membrane protein (10 to 20 ug/assay) to wells already containing 100 ul of incubation buffer (as described above) and 20 ul [^125 I](Sar^1,Ile^8)AngII (Specific Activity, 2200 Ci/mmole). Non-specific binding is measured in the presence of 1.0 uM unlabeled (Sar^1,Ile^8 )AngII, added in 20 ul volume. Specific binding for [^125 I](Sar^1,Ile^8) AngII is greater than 90%. In competition studies, experimental compounds are diluted in dimethylsulfoxide (DMSO) and added in 20 ul to wells before the introduction of tissue membranes. This concentration of DMSO is found to have no negative effects on the binding of [^125 I](Sar^1,Ile^8) AngII to the membranes. Assays are performed in triplicate. […] Presoaking the filter sheet in 0.1% polyethylenemine in normal saline (PEI/Saline) greatly reduces the radioactivity retained by the filter blanks. […] The filters are removed from the filter grid and counted in a Parkard® Cobra Gamma Counter for 1 min. […] The binding data are analyzed by the non-linear interactive "LUNDON-1" program (LUNDON SOFTWARE Inc., Cleveland, Ohio U.S.A.). […]

In the case of `CCCCc1nc2c(c(=O)n1Cc1ccc(-c3ccccc3-c3nn[nH]n3)cc1)CN(C(=O)c1cccnc1)CC2` [Example 10], the IC50 was determined as 51 nM.
